Columns and labels:
Type in all cases: in vivo
[1] = test system: johnsongrass (Sorghum halepense); test: Test C greenhouse herbicide test, pre- and postemergence
Method in brief: (§1)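 Percent-control ratings (0 none, 100 complete) came from visual comparison with controls held alongside in the greenhouse for 13–15 d. Treatments covered soil application at sowing and foliar application to young plants 2–18 cm tall.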

[2] = test system: oilseed rape (Brassica napus); test: as above
Method in brief: as §1

[3] = test system: ragweed (common ragweed, Ambrosia elatior); test: as above
Method in brief: as §1

[4] = test system: foxtail, giant (giant foxtail, Setaria faberii); test: Test A greenhouse herbicide test, pre- and postemergence
Method in brief: (§2)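 Visual injury ratings, 0 (no effect) to 100 (complete control), versus untreated plants after roughly 10 d in a greenhouse. Compounds, formulated in a surfactant-containing non-phytotoxic solvent, were sprayed on loam–sand soil after sowing (pre) or on one- to two-leaf plants 2–10 cm tall (post).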

kochia (Kochia scoparia) = test: as above
Method in brief: as §2

corn (Zea mays) = test: as above; settings: Postemergence
Method in brief: as §2

[5] = test system: ragweed (common ragweed, Ambrosia elatior); test: as above
Method in brief: as §2

[6] = test system: ryegrass, Italian (Italian ryegrass, Lolium multiflorum); test: as above
Method in brief: as §2

[7] = test system: pigweed (Amaranthus retroflexus); test: as above
Method in brief: as §2

[8] = test system: wheat (Triticum aestivum); test: as above; settings: Postemergence
Method in brief: as §2

[9] = Preemergence, 31 g ai/ha, scale 0 to 100, 0 is no effect, 100 is complete control
[10] = Preemergence, 62 g ai/ha, scale 0 to 100, 0 is no effect, 100 is complete control
[11] = Preemergence, 125 g ai/ha, scale 0 to 100, 0 is no effect, 100 is complete control
[12] = Preemergence, 250 g ai/ha, scale 0 to 100, 0 no effect, 100 complete control
[13] = Postemergence, 125 g ai/ha, 0 to 100 scale, 0 no effect, 100 complete control
[14] = Postemergence, 500 g ai/ha, visual rating after approx. 10 d, 0 to 100 scale (0 no effect, 100 complete control)
[15] = Preemergence, 125 g ai/ha, visual injury rating, 0 to 100 scale (0 no effect, 100 complete control), approx. 10 d
[16] = Preemergence, 500 g ai/ha, 0 to 100 scale where 0 is no effect and 100 is complete control
[17] = 125 g ai/ha, 0 to 100 scale, 0 no effect, 100 complete control
[18] = 500 g ai/ha, visual rating after approx. 10 d, 0 to 100 scale (0 no effect, 100 complete control)
[19] = Postemergence, 125 g ai/ha, 0 to 100 scale where 0 is no effect and 100 is complete control
[20] = Preemergence, 125 g ai/ha, 0 to 100 scale where 0 is no effect and 100 is complete control
[21] = 125 g ai/ha, 0 to 100 scale where 0 is no effect and 100 is complete control
[22] = Postemergence, 31 g ai/ha, scale 0 to 100 (0 no effect, 100 complete control)
[23] = Postemergence, 125 g ai/ha, scale 0 to 100, 0 is no effect, 100 is complete control
[24] = Postemergence, 250 g ai/ha, scale 0 to 100, 0 no effect, 100 complete control, 13 to 15 d
[25] = postemergence, 62 g ai/ha, scale 0 to 100, 0 no effect, 100 complete control

`CC(=O)Oc1c(Cl)nn(C)c(=O)c1-c1c(C)sc2ccc(C(F)(F)F)cc12` [Compound 152] was tested, and the “Plant response rating, Johnsongrass” value [1, 9] was 0, the “Plant response rating, Johnsongrass” value [1, 10] was 0 and the “Plant response rating, Johnsongrass” value [1, 11] was 0. For the same molecule, the “Johnsongrass plant response rating” value [1, 12] was 5, the “Plant response rating, Oilseed Rape” value [2, 9] was 50 and the “Plant response rating, Oilseed Rape” value [2, 10] was 85. The “Plant response rating, Oilseed Rape” value [2, 11] was 95, the “Oilseed Rape plant response rating” value [2, 12] was 100 and the “Plant response rating, Ragweed” value [3, 9] was 85. The “Plant response rating, Ragweed” value [3, 10] was 40, the “Plant response rating, Ragweed” value [3, 11] was 75 and the “Ragweed plant response rating” value [3, 12] was 90. The “Plant response rating, Foxtail, Giant” value [4, 13] was 30, the “Plant response rating, Foxtail, Giant” value [4, 14] was 50 and the “Plant response rating, Foxtail, Giant” value [4, 15] was 40. For the same molecule, the “Plant response rating, Foxtail, Giant” value [4, 16] was 90, the “Plant response rating, Kochia” value (kochia (Kochia scoparia); [13]) was 30 and the “Plant response rating, Kochia” value (kochia (Kochia scoparia); [14]) was 40. The “Plant response rating, Kochia” value (kochia (Kochia scoparia); [15]) was 30, the “Plant response rating, Kochia” value (kochia (Kochia scoparia); [16]) was 70 and the “Plant response rating, Corn” value (corn (Zea mays); [17]) was 0. The “Plant response rating, Corn” value (corn (Zea mays); [18]) was 0, the “Plant response rating, Ragweed” value [5, 13] was 70 and the “Plant response rating, Ragweed” value [5, 14] was 90. The “Plant response rating, Ragweed” value [5, 15] was 80, the “Plant response rating, Ragweed” value [5, 16] was 100 and the “Plant response rating, Ryegrass, Italian” value [6, 13] was 30. For the same molecule, the “Plant response rating, Ryegrass, Italian” value [6, 14] was 90, the “Plant response rating, Ryegrass, Italian” value [6, 15] was 90 and the “Plant response rating, Ryegrass, Italian” value [6, 16] was 100. For the same molecule, the “Plant response rating, Pigweed” value [7, 13] was 50, the “Plant response rating, Pigweed” value [7, 14] was 60 and the “Plant response rating, Pigweed” value [7, 15] was 90. For the same molecule, the “Plant response rating, Pigweed” value [7, 16] was 90, the “Plant response rating, Wheat” value [8, 17] was 30 and the “Plant response rating, Wheat” value [8, 18] was 50.
For `CCC(=O)Oc1c(OC)nn(C)c(=O)c1-c1c(C)sc2ccc(Cl)cc12` [Compound 131], the “Plant response rating, Johnsongrass” value [1, 9] was 0, the “Plant response rating, Johnsongrass” value [1, 10] was 0 and the “Plant response rating, Johnsongrass” value [1, 11] was 0. The “Johnsongrass plant response rating” value [1, 12] was 20, the “Plant response rating, Oilseed Rape” value [2, 9] was 20 and the “Plant response rating, Oilseed Rape” value [2, 10] was 40. For the same molecule, the “Plant response rating, Oilseed Rape” value [2, 11] was 85, the “Oilseed Rape plant response rating” value [2, 12] was 80 and the “Plant response rating, Ragweed” value [3, 9] was 65. For the same molecule, the “Plant response rating, Ragweed” value [3, 10] was 95, the “Plant response rating, Ragweed” value [3, 11] was 98 and the “Ragweed plant response rating” value [3, 12] was 98. For the same molecule, the “Plant response rating, Foxtail, Giant” value [4, 19] was 50, the “Plant response rating, Foxtail, Giant” value [4, 14] was 80 and the “Foxtail, Giant plant response rating” value [4, 20] was 80. For the same molecule, the “Plant response rating, Foxtail, Giant” value [4, 16] was 90, the “Plant response rating, Kochia” value (kochia (Kochia scoparia); [19]) was 60 and the “Plant response rating, Kochia” value (kochia (Kochia scoparia); [14]) was 80. The “Kochia plant response rating” value (kochia (Kochia scoparia); [20]) was 0, the “Plant response rating, Kochia” value (kochia (Kochia scoparia); [16]) was 20 and the “Plant response rating, Corn” value (corn (Zea mays); [21]) was 0. For the same molecule, the “Plant response rating, Corn” value (corn (Zea mays); [18]) was 10, the “Plant response rating, Ragweed” value [5, 19] was 100 and the “Plant response rating, Ragweed” value [5, 14] was 90. The “Ragweed plant response rating” value [5, 20] was 40, the “Plant response rating, Ragweed” value [5, 16] was 60 and the “Plant response rating, Ryegrass, Italian” value [6, 19] was 90. For the same molecule, the “Plant response rating, Ryegrass, Italian” value [6, 14] was 90, the “Ryegrass, Italian plant response rating” value [6, 20] was 90 and the “Plant response rating, Ryegrass, Italian” value [6, 16] was 90. The “Plant response rating, Pigweed” value [7, 19] was 60, the “Plant response rating, Pigweed” value [7, 14] was 90 and the “Pigweed plant response rating” value [7, 20] was 80. The “Plant response rating, Pigweed” value [7, 16] was 100, the “Plant response rating, Wheat” value [8, 21] was 0 and the “Plant response rating, Wheat” value [8, 18] was 20.
For `Cc1nn(C)c(=O)c(-c2c(C)sc3ccc(C(F)(F)F)cc23)c1O` [Compound 121], the “Plant response rating, Johnsongrass” value [1, 22] was 0, the “Plant response rating, Johnsongrass” value [1, 23] was 5 and the “Plant response rating, Johnsongrass” value [1, 24] was 5. For the same molecule, the “Plant response rating, Johnsongrass” value [1, 9] was 0, the “Plant response rating, Johnsongrass” value [1, 10] was 0 and the “Plant response rating, Johnsongrass” value [1, 11] was 0. For the same molecule, the “Johnsongrass plant response rating” value [1, 12] was 10, the “Plant response rating, Oilseed Rape” value [2, 22] was 70 and the “Plant response rating, Oilseed Rape” value [2, 23] was 85. The “Plant response rating, Oilseed Rape” value [2, 24] was 55, the “Plant response rating, Oilseed Rape” value [2, 9] was 0 and the “Plant response rating, Oilseed Rape” value [2, 10] was 85. The “Plant response rating, Oilseed Rape” value [2, 11] was 30, the “Oilseed Rape plant response rating” value [2, 12] was 85 and the “Plant response rating, Ragweed” value [3, 22] was 75. For the same molecule, the “Plant response rating, Ragweed” value [3, 23] was 95, the “Plant response rating, Ragweed” value [3, 24] was 98 and the “Plant response rating, Ragweed” value [3, 9] was 35. The “Plant response rating, Ragweed” value [3, 10] was 95, the “Plant response rating, Ragweed” value [3, 11] was 98 and the “Ragweed plant response rating” value [3, 12] was 98. For the same molecule, the “Plant response rating, Foxtail, Giant” value [4, 19] was 60, the “Plant response rating, Foxtail, Giant” value [4, 14] was 80 and the “Foxtail, Giant plant response rating” value [4, 20] was 80. The “Plant response rating, Foxtail, Giant” value [4, 16] was 80, the “Plant response rating, Kochia” value (kochia (Kochia scoparia); [19]) was 70 and the “Plant response rating, Kochia” value (kochia (Kochia scoparia); [14]) was 80. For the same molecule, the “Kochia plant response rating” value (kochia (Kochia scoparia); [20]) was 0, the “Plant response rating, Kochia” value (kochia (Kochia scoparia); [16]) was 30 and the “Plant response rating, Corn” value (corn (Zea mays); [21]) was 20. For the same molecule, the “Plant response rating, Corn” value (corn (Zea mays); [18]) was 20, the “Plant response rating, Ragweed” value [5, 19] was 90 and the “Plant response rating, Ragweed” value [5, 14] was 90. For the same molecule, the “Ragweed plant response rating” value [5, 20] was 60, the “Plant response rating, Ragweed” value [5, 16] was 80 and the “Plant response rating, Ryegrass, Italian” value [6, 19] was 90. For the same molecule, the “Plant response rating, Ryegrass, Italian” value [6, 14] was 100, the “Ryegrass, Italian plant response rating” value [6, 20] was 80 and the “Plant response rating, Ryegrass, Italian” value [6, 16] was 90. For the same molecule, the “Plant response rating, Pigweed” value [7, 19] was 90, the “Plant response rating, Pigweed” value [7, 14] was 90 and the “Pigweed plant response rating” value [7, 20] was 100. The “Plant response rating, Pigweed” value [7, 16] was 100, the “Plant response rating, Wheat” value [8, 21] was 0 and the “Plant response rating, Wheat” value [8, 18] was 20.
For `COC(=O)Oc1cnn(C)c(=O)c1-c1c(C)sc2ccccc12` [Compound 97], the “Plant response rating, Johnsongrass” value [1, 23] was 0, the “Plant response rating, Johnsongrass” value [1, 24] was 5 and the “Plant response rating, Johnsongrass” value [1, 9] was 0. The “Plant response rating, Johnsongrass” value [1, 10] was 0, the “Plant response rating, Johnsongrass” value [1, 11] was 0 and the “Johnsongrass plant response rating” value [1, 12] was 0. For the same molecule, the “Johnsongrass plant response rating” value [1, 25] was 0, the “Plant response rating, Oilseed Rape” value [2, 23] was 0 and the “Plant response rating, Oilseed Rape” value [2, 24] was 35. For the same molecule, the “Plant response rating, Oilseed Rape” value [2, 9] was 0, the “Plant response rating, Oilseed Rape” value [2, 10] was 0 and the “Plant response rating, Oilseed Rape” value [2, 11] was 0. The “Oilseed Rape plant response rating” value [2, 12] was 0, the “Oilseed Rape plant response rating” value [2, 25] was 0 and the “Plant response rating, Ragweed” value [3, 23] was 25. For the same molecule, the “Plant response rating, Ragweed” value [3, 24] was 35, the “Plant response rating, Ragweed” value [3, 9] was 0 and the “Plant response rating, Ragweed” value [3, 10] was 0. The “Plant response rating, Ragweed” value [3, 11] was 0, the “Ragweed plant response rating” value [3, 12] was 10 and the “Ragweed plant response rating” value [3, 25] was 10. The “Plant response rating, Foxtail, Giant” value [4, 19] was 80, the “Plant response rating, Foxtail, Giant” value [4, 14] was 100 and the “Foxtail, Giant plant response rating” value [4, 20] was 60. The “Plant response rating, Foxtail, Giant” value [4, 16] was 100, the “Plant response rating, Kochia” value (kochia (Kochia scoparia); [19]) was 90 and the “Plant response rating, Kochia” value (kochia (Kochia scoparia); [14]) was 100. The “Kochia plant response rating” value (kochia (Kochia scoparia); [20]) was 80, the “Plant response rating, Kochia” value (kochia (Kochia scoparia); [16]) was 100 and the “Plant response rating, Corn” value (corn (Zea mays); [21]) was 10. For the same molecule, the “Plant response rating, Corn” value (corn (Zea mays); [18]) was 70, the “Plant response rating, Ragweed” value [5, 19] was 90 and the “Plant response rating, Ragweed” value [5, 14] was 100. The “Ragweed plant response rating” value [5, 20] was 90, the “Plant response rating, Ragweed” value [5, 16] was 100 and the “Plant response rating, Ryegrass, Italian” value [6, 19] was 100. For the same molecule, the “Plant response rating, Ryegrass, Italian” value [6, 14] was 100, the “Ryegrass, Italian plant response rating” value [6, 20] was 100 and the “Plant response rating, Ryegrass, Italian” value [6, 16] was 100. The “Plant response rating, Pigweed” value [7, 19] was 90, the “Plant response rating, Pigweed” value [7, 14] was 100 and the “Pigweed plant response rating” value [7, 20] was 100. The “Plant response rating, Pigweed” value [7, 16] was 100, the “Plant response rating, Wheat” value [8, 21] was 20 and the “Plant response rating, Wheat” value [8, 18] was 80.

Source: US10597388B2, “Pyridazinone herbicides” (FMC CORPORATION, priority 2014, dated 2020)
